Starred links: 1 amine or outer side, 2 acyl side, 3 side chain; linkers in the order of their positions; H or OH if unused. Positions of bridges follow the written chain, without caps; N, C: chain ends. Non-standard residues stand in square brackets, D forms with d. Residues, ends and D or L forms follow the SMILES beside them. Maleimide(3,4-diyl) = O=C1NC(=O)C([*:2])=C1[*:1]; Nle = CCCC[C@H](N)C(=O)O
Columns and labels:
[1] = Trypsin proteolysis followed by LC-MS; format: in vitro ADME; conditions: trypsin from bovine pancreas (isolated protease), pH 7.5, 1:10000 enzyme/substrate ratio, 50 mM phosphate buffer, 200 mM NaCl, pH 7.50, peptide 200 μM stock, 5% DMSO, LC-MS of intact peptide at 0, 5, 12, 21, 45, 90 min, read-out: t1/2, trypsin proteolysis
Experimental: Proteolysis studies on BID peptides
Trypsin, modified sequencing grade from bovine pancreas (lyophilized powder, MW = 24 kDa, ≥ 4 units/mg protein) was purchased from Sigma-Aldrich and used without further purification. BID peptides (200 µM stock in PBS buffer pH 7.50, 5% DMSO) were treated with Trypsin (0.02 µM stock solutions in PBS buffer pH 7.50) in a 1:10000 enzyme/substrate ratio.
The degradation was followed with LCMS (Aeris Peptide LC-Column XB-C18 2.6 µm, 100x2.1 mm, injection volume: 5 µL, acetonitrile/water (0.1% formic acid) 5-95% gradient).
The degradation pattern of each peptide (figure A) could be identified by mass spectrometry.
The cleavage sites are marked by dotted lines and the subsequent fragment masses, shown in squares, are allocated to a number which is reported on the LCMS graph (graph B).
The LCMS traces (graph B) of each peptide incubated with Trypsin were recorded at the following successive times: 0, 5, 12, 21, 45 and 90 min.
(graph C) was integrated to extract kinetic values.

[2] = Circular dichroism, % helicity; format: physicochemical; conditions: CD, peptide 10-20 μM, calculated from MRE at 222 nm
Experimental: Samples were prepared in two different solvent systems (30% TFE:H2O, 30% CH3CN:water) to concentrations between 10 - 20 μM (Figure S 23). Considering the high number of hydrophobic residues in BID and S peptides, organic co-solvents were used to ensure good solubility and avoid aggregation at concentrations high enough for CD analyses. DMSO stocks of peptides were not used for CD due to its high absorbance below 230 nm.
The raw circular dichroism data obtained for the peptides was processed by the subtraction of the solvent signal and converted into a mean residue ellipticity:
Where = molar ellipticity[θ]MRE per residue, θ = circular dichroism at a given wavelength, c = molar concentration, l = path length in cm, R = number of residues in the peptide sequence.
Calculation of % helicity was performed by the following equation:[4]
Where: θH = Theoretical MRE for 100% helicity at 222 nm, θ0 = Theoretical MRE for 100% helicity at 222 nm at 0 °C = –44000, (∂θ/∂T) = temperature dependence of infinite helix = +250, T = temperature in °C, x = 3, Nr = number of residues in the peptide.
In both solvent systems, it is noteworthy that STA-peptides are more helical than RED-peptides or WT-peptides; with the exception of constrained S-Cys-peptides. The use of TFE as co-solvent in water enhances the α-helicity of both series of peptides compared to the use of acetonitrile in water. […]
thus bioactive) conformation. The S peptides show a low helix propensity which is consistent […]
Figure S 23: CD spectra A. and B. in 30% TFE:H 2O; C. and D. in 30% CH3CN:H 2O.
Table 1: Percentage of helicity in the three solvent systems […]
(also on this page, place not known: Molar residue ellipticity (deg.cm 2 .dmol -1 ) Molar residue ellipticity (deg.cm 2 .dmol -1 ) Molar residue ellipticity (deg.cm 2 .dmol -1 ) Molar residue ellipticity (deg.cm 2 .dmol -1 ) TFE:H2O; CH3CN:H2O.)

[3] = molecular target: FITC-BID/Mcl-1 interaction (Homo sapiens, UniProt Q07820); test: Fluorescence anisotropy competition assay, FITC-BID/Mcl-1; format: binding; conditions: 25 nM tracer, 150 nM protein, 50 mM Tris, 150 mM NaCl, 0.61% Triton X-100, pH 7.40; 1 h, room temperature; triplicate; read-out: IC50, inhibition of the FITC-BID/Mcl-1 interaction
FITC-BID/Mcl-1 interaction, sequence (Q07820 172-327 limits assumed): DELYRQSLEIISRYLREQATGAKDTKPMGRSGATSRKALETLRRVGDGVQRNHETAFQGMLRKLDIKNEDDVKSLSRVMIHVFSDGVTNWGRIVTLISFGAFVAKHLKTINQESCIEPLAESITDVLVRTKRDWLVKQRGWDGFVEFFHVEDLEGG
Experimental: fluorescein-labelled FITC-Ahx-BID (80-102) was synthesised and purified as stated […]
(§1) Fluorescence anisotropy assays were performed in 384-well black plates (Greiner Bio-one).
(§2) Each experiment was run in triplicate and fluorescence anisotropy was measured using a Perkin Elmer EnVisionTM 2103 MultiLabel plate reader. […]
- 50 mM phosphate buffer at pH 7.5, containing 200 mM NaCl and 0.05% of tween for […]
(§3) 20 µL of assay buffer were first added to each well.
(§4) For each competition assay, 20 µL of a solution of α-helix mimetics (1 mM in 90:10 (v/v) assay buffer: DMSO) were added to the first column. The solution was well mixed and 20 µL were taken out and added to the next column and so on. This operation consisted on serial dilution of the peptides across the plate (24-points, 1/2 serial dilution). The tracer peptide and the targeted protein were added to each well to give a final concentration of 25 nM and […]
(§5) For control wells in both assays, the tracer peptide was replaced with an identical volume of assay buffer. […] Plates were read after 1 h of incubation […]
(§6) The average anisotropy (across three experimental replicates) and the standard deviation of these values were then calculated and fit to a sigmoidal logistic model (Equation 3) using OriginPro 9.0 which provided the IC50 and error values.

[4] = molecular target: BODIPY-BAK/Bcl-xL interaction (Homo sapiens, UniProt Q07817); test: Fluorescence anisotropy competition assay, BODIPY-BAK/Bcl-xL; format: binding; conditions: 25 nM tracer, 150 nM protein, 50 mM phosphate, 200 mM NaCl, 0.02 mg mL-1 BSA, pH 7.50; 1 h, room temperature; triplicate; read-out: IC50, inhibition of the BODIPY-BAK/Bcl-xL interaction
BODIPY-BAK/Bcl-xL interaction, sequence (Q07817 whole entry): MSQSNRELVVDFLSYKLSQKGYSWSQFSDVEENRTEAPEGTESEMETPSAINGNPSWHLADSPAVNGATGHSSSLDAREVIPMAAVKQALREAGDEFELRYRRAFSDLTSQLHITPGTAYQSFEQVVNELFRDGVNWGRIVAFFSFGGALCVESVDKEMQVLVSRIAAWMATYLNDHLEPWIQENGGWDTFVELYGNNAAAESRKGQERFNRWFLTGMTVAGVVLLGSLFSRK
Experimental: as §1, §2
- 50 mM phosphate buffer at pH 7.5, containing 200 mM NaCl and 0.02 mg.mL-1 bovine serum albumin (BSA) for BODIPY-BAK/Bcl-xL. […]
as §3, §4
For each direct titration assay, 20 µL of a solution of the protein (60 µM in assay buffer) were added to the first column. […]
as §5, §6

Row | SMILES | half-life [1] [min] | Percentage of helicity, 30% TFE:H2O [2] [%] | IC50 [3] [µM] | IC50 [4] [µM] | Percentage of helicity, 30% CH3CN:H2O ([2]; 30% CH3CN:H2O) [%]
1 | CCCC[C@H](NC(=O)[C@H](CCS)NC(=O)[C@H](CC(=O)O)NC(=O)CNC(=O)[C@@H](NC(=O)[C@H](CCS)NC(=O)[C@H](C)NC(=O)[C@H](CC(C)C)NC(=O)[C@H](Cc1c[nH]cn1)NC(=O)[C@H](CCCNC(=N)N)NC(=O)[C@H](C)NC(=O)[C@@H](NC(=O)[C@H](CC(N)=O)NC(=O)[C@H](CCCNC(=N)N)NC(=O)[C@@H](NC(=O)[C@@H](NC(=O)[C@H](CC(=O)O)NC(=O)[C@H](CCC(=O)O)NC(C)=O)[C@@H](C)CC)[C@@H](C)CC)[C@@H](C)CC)C(C)C)C(=O)N[C@@H](CC(=O)O)C(=O)N[C@@H](CCCNC(=N)N)C(=O)N[C@@H](CO)C(=O)N[C@H](C(=O)N[C@@H](Cc1c[nH]c2ccccc12)C(N)=O)[C@@H](C)CC [1b] | 32 | 23 | – | – | –
2 | CCCC[C@H](NC(=O)[C@H](CS)NC(=O)[C@H](CC(=O)O)NC(=O)CNC(=O)[C@@H](NC(=O)[C@H](CS)NC(=O)[C@H](C)NC(=O)[C@H](CC(C)C)NC(=O)[C@H](Cc1c[nH]cn1)NC(=O)[C@H](CCCNC(=N)N)NC(=O)[C@H](C)NC(=O)[C@@H](NC(=O)[C@H](CC(N)=O)NC(=O)[C@H](CCCNC(=N)N)NC(=O)[C@@H](NC(=O)[C@@H](NC(=O)[C@H](CC(=O)O)NC(=O)[C@H](CCC(=O)O)NC(C)=O)[C@@H](C)CC)[C@@H](C)CC)[C@@H](C)CC)C(C)C)C(=O)N[C@@H](CC(=O)O)C(=O)N[C@@H](CCCNC(=N)N)C(=O)N[C@@H](CO)C(=O)N[C@H](C(=O)N[C@@H](Cc1c[nH]c2ccccc12)C(N)=O)[C@@H](C)CC [1a] (Ac-EDIIRNIARHLACVGDC[Nle]DRSIW-NH2) | 22 | – | 23.4 | 70.9 | –
3 | CCCC[C@H](NC(=O)[C@@H]1CSC2=C(SC[C@H](NC(=O)[C@H](C)NC(=O)[C@H](CC(C)C)NC(=O)[C@H](Cc3c[nH]cn3)NC(=O)[C@H](CCCNC(=N)N)NC(=O)[C@H](C)NC(=O)[C@@H](NC(=O)[C@H](CC(N)=O)NC(=O)[C@H](CCCNC(=N)N)NC(=O)[C@@H](NC(=O)[C@@H](NC(=O)[C@H](CC(=O)O)NC(=O)[C@H](CCC(=O)O)NC(C)=O)[C@@H](C)CC)[C@@H](C)CC)[C@@H](C)CC)C(=O)N[C@@H](C(C)C)C(=O)NCC(=O)N[C@@H](CC(=O)O)C(=O)N1)C(=O)NC2=O)C(=O)N[C@@H](CC(=O)O)C(=O)N[C@@H](CCCNC(=N)N)C(=O)N[C@@H](CO)C(=O)N[C@H](C(=O)N[C@@H](Cc1c[nH]c2ccccc12)C(N)=O)[C@@H](C)CC [3a] (Ac-EDIIRNIARHLACVGDC[Nle]DRSIW-NH2; linker 13-17 via Maleimide(3,4-diyl)) | 75 | – | 16.6 | 19.4 | –
4 | CCCC[C@H](NC(=O)[C@@H]1CCSC2=C(SCC[C@H](NC(=O)[C@H](C)NC(=O)[C@H](CC(C)C)NC(=O)[C@H](Cc3c[nH]cn3)NC(=O)[C@H](CCCNC(=N)N)NC(=O)[C@H](C)NC(=O)[C@@H](NC(=O)[C@H](CC(N)=O)NC(=O)[C@H](CCCNC(=N)N)NC(=O)[C@@H](NC(=O)[C@@H](NC(=O)[C@H](CC(=O)O)NC(=O)[C@H](CCC(=O)O)NC(C)=O)[C@@H](C)CC)[C@@H](C)CC)[C@@H](C)CC)C(=O)N[C@@H](C(C)C)C(=O)NCC(=O)N[C@@H](CC(=O)O)C(=O)N1)C(=O)NC2=O)C(=O)N[C@@H](CC(=O)O)C(=O)N[C@@H](CCCNC(=N)N)C(=O)N[C@@H](CO)C(=O)N[C@H](C(=O)N[C@@H](Cc1c[nH]c2ccccc12)C(N)=O)[C@@H](C)CC [3b] | 84 | 47 | – | – | 43
